Source: patent US20100221763A1, “Specific Acceptors for Transferases to Saccharides and Method for Obtaining and Using Same” (Health Research, Inc, priority 2005, published 2010)
One block for each molecule: values may come before it.

Legend:
[1] = biological target: T1, Rat recombinant α2,3(O)ST (Rattus norvegicus, UniProt Q11205); test: Sialyltransferase assay with cloned α2,3(O)ST; assay type: biochemical; details: for acceptor efficiency for cloned α2,3(O)ST (FIG. 6C): compared to Galβ1,3GalNAcβ1,3Galα-O-Me
T1 construct: purchased Calbiochem
T1 sequence (Q11205 1-350): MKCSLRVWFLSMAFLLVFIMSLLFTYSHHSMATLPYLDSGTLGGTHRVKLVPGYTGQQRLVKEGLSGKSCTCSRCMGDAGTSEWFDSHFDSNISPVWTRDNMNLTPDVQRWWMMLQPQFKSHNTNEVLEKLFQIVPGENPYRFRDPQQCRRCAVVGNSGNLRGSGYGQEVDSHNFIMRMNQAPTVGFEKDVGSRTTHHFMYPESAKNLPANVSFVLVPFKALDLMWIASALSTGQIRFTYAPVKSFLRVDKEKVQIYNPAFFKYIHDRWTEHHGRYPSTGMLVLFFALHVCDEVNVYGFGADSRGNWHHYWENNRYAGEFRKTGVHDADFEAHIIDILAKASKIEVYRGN

[2] = system: α1,3-L-FT of breast tumor BC9400; test: α1,3-L-FT assay, breast tumor extract; assay type: biochemical, human; details: 1 mg protein of the tissue extract
Protocol: (§1) Colon tumor tissue (CC9338) and breast tumor tissue (BC9400) were obtained during surgical procedures at Roswell Park Cancer Institute and stored frozen within 1 h at −70° C. The tissues were homogenized at 4° C. with 4 volumes of 0.1M Tris Maleate […] 0.1% NaN3 using kinematica. After adjusting the concentration of Triton X-100 to 2%, these homogenates were mixed in the cold room for 1 h using Speci-Mix (Thermolyne) and then centrifuged at 20,000 g for 1 h at 4° C. The clear fat-free supernatant was stored frozen at −20° C. until use. Aliquots of 10 μL from this extract were used in assays run in duplicates. Glycosyltransferase activity in cell lysate was determined by mixing the lysates with acceptor and radiolabeled donor (monosaccharide) under the reaction conditions detailed below, followed by separation of un-reacted donor from the radioactive product using anionic or hydrophobic chromatography. In all cases, the radioactive content of isolated products was determined by using 3a70 scintillation cocktail (Research Products International, Mount Prospect, Ill.) and a Beckman LS6500 scintillation counter. Controls for each assay contained the reaction mixture with everything except the acceptor. All assays were run in duplicate. […]

[3] = system: α1,3-L-FT of colon tumor CC9338; test: α1,3-L-FT assay, colon tumor extract; assay type: biochemical, human; details: 1 mg protein of the tissue extract
Protocol: as §1

[4] = system: α1,4-L-FT of breast tumor BC9400; test: α1,4-L-FT assay, breast tumor extract; assay type: biochemical, human; details: 1 mg protein of the tissue extract
Protocol: as §1

acceptor efficiency for cloned α2,3(O)ST (FIG. 6C) ([1]; 0.15 mM): about 50% | acceptor efficiency for cloned α2,3(O)ST (FIG. 6C) ([1]; 0.75 mM): ~100% | Sialyltransferase activity (%) Cloned α2,3(O)ST ([1]; Table I, acceptor 7.5 mM, 100% = 40560 CPM (3-O-MeGalβ1,4GlcNAcβ1,6(Galβ1,3)GalNAcα-O-Bn), listed as D-Fucβ1,3GalNAcβ1,3-Gal-O-Me): 115.6%
Structure (SMILES): CO[C@H]1O[C@H](CO)[C@H](O)[C@H](O[C@@H]2O[C@H](CO)[C@H](O)[C@H](O[C@@H]3O[C@H](C)[C@H](O)[C@H](O)[C@H]3O)[C@H]2NC(C)=O)[C@H]1O [D-Fucβ1,3GalNAcβ1,3Galα-O-Me]

Structure (SMILES): CO[C@H]1[C@H](O[C@H]2[C@H](O)[C@@H](NC(C)=O)C(O)O[C@@H]2CO)O[C@H](CO)[C@H](O)[C@@H]1O (stereo partly drawn) [2-O-MeGalβ1,4GlcNAc]
α1,3-L-FT activity: incorporation of radioactive sugar [2]: 30.5 CPM × 10^−3 | α1,3-L-FT activity: incorporation of radioactive sugar [3]: 540.9 CPM × 10^−3

Structure (SMILES): CO[C@H]1[C@H](O[C@H]2[C@H](O)[C@@H](CO)OC(O)[C@@H]2NC(C)=O)O[C@H](CO)[C@H](O)[C@@H]1O (stereo partly drawn) [2-O-MeGalβ1,3GlcNAc]
α1,4-L-FT activity: incorporation of radioactive sugar [4]: 4.6 CPM × 10^−3
